“Also recorded” adds a separate entry of the source.
Columns and labels:
[1] = test system: EH-1 gene; assay: EH-1 gene expression in tobacco suspension cells treated with auxins; format: cell-based; conditions: 100 μM, hormone-free medium 2 days, 0-12 h
Protocol: (§1) FIG. 12A: tobacco leaves were injected with water or 1 mM SA, INA or 4HBA. Samples were harvested at the times indicated and total RNA was extracted from treated tissue. Ten μg of RNA was loaded in each lane. FIG. 12B: quantification of EH-1 transcripts corresponding to the data from FIG. 12A. The method of quantification is described in FIG. 9. The experiments were done twice. FIG. 12C: cell cultures were subcultured for 2 days in hormone-free medium to deplete hormones. Water, 2,4-D or IAA were then added to the media at 100 μM. Cells were collected at the times indicated.
(§2) Cell suspension was treated with auxins as described by Xiang et al (1996). Cell cultures were grown in hormone-free medium for 2 days to deplete hormones in the medium. IAA (100 μM) and 2,4-D (100 μM) were added to the suspension. Cells were harvested at 0, 2, 6 and 12 h after addition of auxins. Water was added to the control.
(§3) Total RNA was isolated from tobacco tissue by phenol/chloroform as described in Example 1. Ten micrograms of total RNA was analyzed by electrophoresis in a 1.2% agarose gel containing formaldehyde and blotted to Nytran Plus membranes (Schleicher and Schuell). Blots were hybridized with [alpha-^32P]dCTP-labeled probes prepared by the random-priming method with a oligo labelling kit (Pharmacia). […] Following autoradiography, mRNA levels were quantitated using a Phosphorimager (Molecular Dynamics).

[2] = test system: auxin-inducible glutathione S-transferase gene, GNT35; assay: GNT35 gene expression in tobacco suspension cells treated with auxins (positive control); format: cell-based; conditions: 100 μM, hormone-free medium 2 days
Protocol: as §1, §2, §3

[3] = test system: Arabidopsis sEH gene; conditions: in vivo; cited from earlier work
[4] = test system: seven groups of SIS genes (ACCO, ACCD, HMGR, APX, PR-3, SAR8.2, PAR-1); assay: Northern analysis of SIS gene expression in tobacco leaves injected with chemicals; format: in vivo, Nicotiana tabacum cv. Xanthi nc; conditions: 1 mM injected into leaf
Protocol: (§4) One leaf on each plant was injected with water, 1 mM of SA, INA or 4-hydroxybenzoic acid (4HBA). At the times indicated, injected leaves from two similarly treated plants (˜5 g tissue) were harvested and total RNA was extracted. Ten μg of RNA was loaded in each lane. The experiment with all ten probes was done twice.
Tobacco (Nicotiana tabacum cv. Xanthi nc) plants and NahG-10 seeds, kindly provided by John Ryals at Novartis, Research Triangle, NC, were grown at 20° C. in a growth room with a 14-h day cycle. Two upper, fully expanded leaves of 6-8 week-old plants were infected with TMV strain U1 at a concentration of 1 μg/ml in 50 mM phosphate buffer (pH 7.2) containing carborundum. Control plants were treated with phosphate buffer and carborundum only. Inoculated plants were maintained in a 22° C. growth chamber until harvesting. In temperature shift experiments, plants were immediately put into a 32° C. growth chamber after infection with TMV. After a 48 h incubation period, the temperature was shifted from 32° C. to 22° C.
(§5) SA and its analog 4-hydroxybenzoic acid were purchased from Sigma. INA was provided by Uwe Conrath and Heinrich Kauss at Universitat Kaiserslautern, Germany. All chemicals were dissolved in water and adjusted a pH of 6.5 with NaOH. They were injected into plants at a concentration of 1 mM. Control plants were injected with distilled water.
(§6) Infected leaves were harvested and frozen in liquid nitrogen and stored at −80° C. until RNA extraction. Total RNA was extracted by phenol/chloroform essentially as described by Berry et al. (1985) with some modifications on the extraction buffer (50 mM Tris.HCl, pH8.0, 20 mM EDTA, 100 mM NaCl, and 2% SDS). For RNA blots, 10 μg of total RNA was loaded in each lane. RNA was separated on 1.2% agarose gels containing 18% formaldehyde and transferred to a Nytran Plus membrane (Schleicher and Schuell, Inc., Keene, N.H.). RNA was fixed to the membrane by cross-linking with UV light and then baked at 80° C. for 2 h. Prehybridization and hybridization were performed at 60° C. in 0.5M phosphate buffer (pH 7.2), containing 1% BSA, 7% SDS, and 1 mM EDTA (Church and Gilbert, 1984). The membranes were washed twice in 2×SSC at room temperature for 10 min each, twice in 2×SSC containing 0.5% SDS at 65° C. for 30 min, and twice in 0.1×SSC at room temperature for 30 min each. The probes were prepared from linearized DNA fragments and labeled with ^32p using the random-prime labeling method (Feinberg and Vogelstein, 1984). The PR-1a DNA clone was previously isolated in our lab and the tobacco PAL DNA clone was kindly provided by Michel Legrand and Bernard Fritig, Centre National de la Recherche Scientifique, Strasbourg, France.

[5] = test system: fungal pathogen; conditions: cited from earlier work; for effectiveness at protecting / inducing resistance to fungal infection in barley: highly susceptible barley cultivar
[6] = test system: potato suspension cells; conditions: cited from earlier work
[7] = test system: PR-1 genes; assay: Northern analysis of PR-1 gene expression in tobacco leaves injected with chemicals; format: in vivo, Nicotiana tabacum cv. Xanthi nc; conditions: for induction of PR-1 genes (in words): exogenous treatment of tobacco
Protocol: as §4, §5, §6
(§7) 2,4-D, […], and its analog 4HBA were purchased from Sigma. IAA was purchased from GIBCO BRL. INA was provided by Uwe Conrath at Universitat Kaiserslautern, Germany. SA, 4HBA and INA were dissolved in water and adjusted to […] pH of 6.5. They were injected into plants at a concentration of 1 mM with a needle-less syringe. Control plants were injected with distilled water. IAA and 2,4-D was dissolved in 0.2% ethanol.
as §3, with “Schuell).” for “Schuell). Blots were hybridized with [alpha-^32P]dCTP-labeled probes prepared by the random-priming method with a oligo labelling kit (Pharmacia).”

[8] = test system: PAL genes; assay: Northern analysis of PAL gene expression in tobacco leaves injected with chemicals; format: in vivo, Nicotiana tabacum cv. Xanthi nc; conditions: 1 mM injected into leaf
Protocol: as §4, §5
Infected leaves were harvested and frozen in liquid nitrogen and stored at −80° C. until RNA extraction. Total RNA was extracted by phenol/chloroform essentially as described by Berry et al. (1985) with some modifications on the extraction buffer (50 mM Tris.HCl, pH8.0, 20 mM EDTA, 100 mM NaCl, and 2% SDS). For RNA blots, 10 μg of total RNA was loaded in each lane. RNA was separated on 1.2% agarose gels containing 18% formaldehyde and transferred to a Nytran Plus membrane (Schleicher and Schuell, Inc., Keene, N.H.). RNA was fixed to the membrane by cross-linking with UV light and then baked at 80° C. for 2 h. […]

[9] = test system: EH-1 gene; assay: EH-1 gene expression in tobacco leaves injected with chemicals; format: in vivo, Nicotiana tabacum; conditions: 1 mM injected into leaf
Protocol: as §1, §7
as §3, with “Schuell).” for “Schuell). Blots were hybridized with [alpha-^32P]dCTP-labeled probes prepared by the random-priming method with a oligo labelling kit (Pharmacia).”

Q: With O=C(O)COc1ccc(Cl)cc1Cl [2,4-D, 2,4-dichlorophenoxy acetic acid] as the molecule, how does the “induction of EH-1 expression (in words)” value [1] read?
A: Its value is “Little or no induction”.

Q: And the “induction of GNT35 expression (in words)” value [2]?
A: Its value is “rapidly induced”.

Q: What about the “induction of Arabidopsis sEH gene” value [3] of the same molecule?
A: Its value is “induced by auxins”.

Q: For O=C(O)c1ccc(O)cc1 [4HBA, 4-hydroxybenzoic acid], which “activation of the seven groups of SIS genes (in words)” value [4] is on record?
A: The value was “failed to activate these genes”.

Q: Which results are given for O=C(O)CCCCCCCC(O)C(O)CCCCCCCCO (stereo not shown) [9,10,18-trihydroxystearic acid]?
A: effectiveness at protecting / inducing resistance to fungal infection in barley [5]: nearly as effective; toxicity relative to HESA ([5]; in vivo): less toxic than HESA; alkalinization of media [6]: to a lesser extent than HESA

Q: What does the source list for O=C(O)CCCCCCCC1OC1CCCCCCCCO (stereo not drawn) [HESA, cis-9,10-epoxy-18-hydroxystearic acid]?
A: effectiveness at protecting / inducing resistance to fungal infection in barley [5]: most effective; alkalinization of media [6]: caused the rapid alkalinization

Q: For O=C(O)Cc1c[nH]c2ccccc12 [IAA, indole-3-acetic acid], which “induction of EH-1 expression (in words)” value [1] is on record?
A: The value was “Little or no induction”.

Q: And the “induction of GNT35 expression (in words)” value [2]?
A: Its value is “rapidly induced”.

Q: And the “induction of Arabidopsis sEH gene” value [3]?
A: Its value is “induced by auxins”.

Q: Which results are given for O=C(O)c1cc(Cl)nc(Cl)c1 [INA, 2,6-dichloroisonicotinic acid]?
A: activation of the seven groups of SIS genes (in words) [4]: induced by INA, generally in a transient manner; also recorded: rapid and transient activation of six of the seven groups; induction of PR-1 genes (in words) [7]: slow and sustained; induction of PAL gene expression (in words) [8]: neither SA nor INA can induce PAL gene expression; EH-1 transcript accumulation (in words) [9]: induced a transient accumulation of EH-1 transcripts; also recorded: accumulate rapidly and transiently

Q: Which “activation of the seven groups of SIS genes (in words)” value [4] does the source give for O=C(O)c1ccccc1O [SA, salicylic acid] here?
A: The value was “induced their expression transiently; also recorded: rapid and transient activation of six of the seven groups”.

Q: And the “time post treatment by which SIS mRNA levels had declined” value [4]?
A: The value was no more than 24 h.

Q: And the “time post treatment by which mRNA levels for all SIS genes had peaked” value [4]?
A: The value was no more than 12 h.

Q: What about the “time after injection by which six of the seven groups of SIS genes were induced” value ([4]; Northern blot) of the same molecule?
A: Its value is 4 to 6 h.

Q: And the “time after treatment at which increased expression of PAR-1 was detected” value ([4]; this experiment)?
A: Its value is 12 h.

Q: What about the “time post treatment at which PR-1 mRNAs were first detected” value ([7]; 1 mM injected into leaf, Example 1) of the same molecule?
A: The value was 12 h.

Q: What about the “time post treatment at which PR-1 transcripts were first detected” value ([7]; 1 mM injected into leaf, Example 2) of the same molecule?
A: The value was 12 h.

Q: What about the “induction of PR-1 genes (in words)” value [7] of the same molecule?
A: The value was “slow and sustained”.

Q: And the “induction of PAL gene expression (in words)” value [8]?
A: Its value is “little, if any, induction of PAL; also recorded: neither SA nor INA can induce PAL gene expression”.

Reference: US6495737B1, “Methods and compositions for improving salicylic acid-independent systemic acquired disease resistance in plants” (Rutgers, The State University of New Jersey, priority 1996, dated 2002)
